These results are taken from ChEMBL document CHEMBL3352358, “Discovery of 2-(cyclohexylmethylamino)pyrimidines as a new class of reversible valosine containing protein inhibitors” (J Med Chem, 2014).

The target of the test is Transitional endoplasmic reticulum ATPase (Homo sapiens, UniProt P55072). The experiment in a line: biochemical. It counts as cell-based.

A value given as a limit tells only on which side of the number the result lay.

Transitional endoplasmic reticulum ATPase, sequence (P55072 whole entry): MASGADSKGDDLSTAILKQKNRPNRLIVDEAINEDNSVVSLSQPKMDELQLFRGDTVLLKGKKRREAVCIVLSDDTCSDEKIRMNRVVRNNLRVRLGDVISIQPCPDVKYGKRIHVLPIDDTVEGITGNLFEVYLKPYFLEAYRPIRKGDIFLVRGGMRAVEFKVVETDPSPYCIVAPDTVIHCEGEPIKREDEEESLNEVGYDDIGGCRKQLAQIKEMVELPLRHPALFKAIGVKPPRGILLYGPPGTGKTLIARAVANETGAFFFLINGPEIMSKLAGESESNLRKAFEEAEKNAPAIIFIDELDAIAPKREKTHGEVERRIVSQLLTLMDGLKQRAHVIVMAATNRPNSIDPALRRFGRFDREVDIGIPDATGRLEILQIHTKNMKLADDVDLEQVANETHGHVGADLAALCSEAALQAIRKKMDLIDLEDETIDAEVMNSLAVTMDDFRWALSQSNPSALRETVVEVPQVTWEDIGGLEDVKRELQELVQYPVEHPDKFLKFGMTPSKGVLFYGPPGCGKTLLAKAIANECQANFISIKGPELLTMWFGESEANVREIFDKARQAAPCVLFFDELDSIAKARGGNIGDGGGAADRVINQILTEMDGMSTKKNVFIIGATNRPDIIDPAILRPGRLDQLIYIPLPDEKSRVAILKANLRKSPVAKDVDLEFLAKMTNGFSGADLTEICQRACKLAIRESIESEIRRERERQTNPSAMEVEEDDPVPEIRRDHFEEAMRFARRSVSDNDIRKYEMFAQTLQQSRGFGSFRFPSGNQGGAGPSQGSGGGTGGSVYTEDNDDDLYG
Description: Inhibition of human full length VCP (2 to 806 residues) expressed in High5 insect cells assessed as reduction in ATPase activity by measuring ADP formation by NADH coupled assay

In general, IC50 refers to the concentration needed to halve the response being measured. Higher therefore signals weaker potency. Regarding `O=C(O)[C@H]1CC[C@H](CNc2nc(-c3ccccc3)cc(-c3cccc(F)c3)n2)CC1`, the IC50 came to 552 nM. In other words, the sub-micromolar range.

`CS(=O)(=O)c1ccc(CNc2cc(-c3ccccc3)nc(NC[C@H]3CC[C@H](C(N)=O)CC3)n2)cc1`: the IC50 was over 10000 nM.

On to `NC(=O)[C@H]1CC[C@H](CNc2nc(NCc3cccc(S(N)(=O)=O)c3)cc(-c3ccccc3)n2)CC1`, for which half-maximal inhibition (IC50) was put at 7610 nM.

Turning to `Cc1cc(-c2ccccc2)nc(NC[C@H]2CC[C@H](C(=O)O)CC2)n1`, the IC50 was determined as 2600 nM.

Compound `O=C(O)[C@H]1CC[C@H](CNc2nc(-c3ccccc3)cc(-c3cccc([N+](=O)[O-])c3)n2)CC1` had an IC50 of 201 nM. Against the preceding compound, the IC50 is about 13-fold lower.

Compound `COc1cccc(-c2cc(-c3ccccc3)nc(NC[C@H]3CC[C@H](C(=O)O)CC3)n2)c1` gave an IC50 of 543 nM.

For `Cc1ccc(-c2cc(C)nc(NC[C@H]3CC[C@H](C(=O)O)CC3)n2)cc1`, half-maximal inhibition (IC50) required 2700 nM.

Turning to `Cc1cc(-c2ccccc2)nc(SCc2ccc(C(=O)O)cc2)n1`, the IC50 came to 4800 nM.

On to `NC(=O)[C@H]1CC[C@H](CNc2nc(NCc3cccc(Cl)c3)cc(-c3ccccc3)n2)CC1`, for which the concentration for half-maximal inhibition (IC50) stood at 2760 nM.

With `Cc1cc(-c2ccccc2)nc(SCCc2ccc(C(=O)O)cc2)n1`, the 50% inhibitory concentration (IC50) was determined as 20500 nM.

As for `COc1ccc(-c2cc(C)nc(NC[C@H]3CC[C@H](C(=O)O)CC3)n2)cc1`, the IC50 was over 37000 nM.

Take `O=C(O)[C@H]1CC[C@H](CNc2nc(-c3ccccc3)cc(-c3ccoc3)n2)CC1`: the IC50 came out at 2190 nM.

In turn, `Cc1cc(-c2cccc(Cl)c2)nc(NC[C@H]2CC[C@H](C(=O)O)CC2)n1` yielded an IC50 of 4800 nM.

The compound `O=C(O)[C@H]1CC[C@H](CNc2nc(-c3ccccc3)cc(-c3ccccc3Cl)n2)CC1` yielded a 50% inhibitory concentration (IC50) of 700 nM. This IC50 is about 6.9-fold lower than that of the compound before.

Take `O=C(O)[C@H]1CC[C@H](CNc2nc(-c3ccccc3)cc(-c3cccc(Cl)c3)n2)CC1`: half-maximal inhibition (IC50) was put at 483 nM.

With `Cc1cc(-c2ccc(F)cc2)nc(NC[C@H]2CC[C@H](C(=O)O)CC2)n1`, the IC50 was found to be 8400 nM.

Compound `Cc1ccc(CNc2cc(-c3ccccc3)nc(NC[C@H]3CC[C@H](C(N)=O)CC3)n2)cc1` yielded an IC50 of 2180 nM.

Turning to `Cc1cc(-c2ccccc2)nc(S(=O)(=O)Cc2ccc(C(=O)O)cc2)n1`, the IC50 was over 37000 nM.

For `O=C(O)[C@H]1CC[C@H](CNc2nc(-c3ccccc3)cc(N3CCOCC3)n2)CC1`, the IC50 is over 10000 nM.

In the case of `COc1cccc(-c2cc(C)nc(NC[C@H]3CC[C@H](C(=O)O)CC3)n2)c1`, the concentration for half-maximal inhibition (IC50) is over 37000 nM.

As for `Cc1cc(-c2ccccc2)nc(SCCC(=O)O)n1`, the IC50 is over 37000 nM.

`NC(=O)[C@H]1CC[C@H](CNc2nc(NCc3ccccc3Br)cc(-c3ccccc3)n2)CC1` displayed an IC50 of 7110 nM.

For `COc1ccccc1-c1cc(-c2ccccc2)nc(NC[C@H]2CC[C@H](C(=O)O)CC2)n1`, the midpoint of inhibition, the IC50, lay at 3040 nM.

Compound `NC(=O)[C@H]1CC[C@H](CNc2nc(NCc3ccc(F)cc3)cc(-c3ccccc3)n2)CC1` displayed an IC50 of 2430 nM.

In the case of `CS(=O)(=O)c1ccc(-c2cc(-c3ccccc3)nc(NC[C@H]3CC[C@H](C(=O)O)CC3)n2)cc1`, the IC50 turned out to be 1090 nM.

Regarding `Cc1cccc(-c2cc(-c3ccccc3)nc(NC[C@H]3CC[C@H](C(=O)O)CC3)n2)c1`, the midpoint of inhibition, the IC50, lay at 578 nM.

The compound `O=C(O)[C@H]1CC[C@H](CNc2nc(-c3ccccc3)cc(-c3ccncc3)n2)CC1` gave an IC50 of 1670 nM.

`O=C(O)[C@H]1CC[C@H](CNc2nc(-c3ccccc3)cc(-c3ccc([N+](=O)[O-])cc3)n2)CC1` yielded an IC50 of 2190 nM.

With `O=C(O)[C@H]1CC[C@H](CNc2nc(-c3ccccc3)cc(-c3ccc(F)cc3)n2)CC1`, the IC50 was determined as 742 nM.

The compound `COc1ccc(CNc2cc(-c3ccccc3)nc(NC[C@H]3CC[C@H](C(N)=O)CC3)n2)cc1` returned an IC50 of 5040 nM.

In turn, `Cc1ccccc1-c1cc(-c2ccccc2)nc(NC[C@H]2CC[C@H](C(=O)O)CC2)n1` returned an IC50 of 673 nM.

As to `O=C(O)[C@H]1CC[C@H](CNc2nc(-c3ccccc3)cc(-c3ccccc3)n2)CC1`, the IC50 was found to be 300 nM.

The compound `Cc1cc(-c2ccccc2)nc(NCc2ccc(C(=O)O)cc2)n1` yielded an IC50 of 15400 nM.
